Toxic doses and inconclusive results are not listed.
System: L1210 leukemia ip in BDF1 mice, survival T/C
Assay: NCI In Vivo Anticancer Drug Screen. Data for tumor model L1210 Leukemia (intraperitoneal) in B6D2F1 (BDF1) mice
Details: endpoint: mean survival time, higher = longer survival
Summary of the method: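 Antitumor effect is assessed in tumor-bearing animals. Survival in the compound arm is compared with a vehicle-dosed control arm and expressed as their quotient.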

[1] = dose: 400.0 mg/kg/injection, schedule: Q01DX001 (ip), vehicle: saline
[2] = dose: 100.0 mg/kg/injection, schedule: Q04DX002 (ip), vehicle: Klucel (hydroxypropylcellulose) (HPC)
[3] = dose: 200.0 mg/kg/injection, schedule: Q04DX002 (ip), vehicle: Klucel (hydroxypropylcellulose) (HPC)
[4] = dose: 400.0 mg/kg/injection, schedule: Q04DX002 (ip), vehicle: Klucel (hydroxypropylcellulose) (HPC)
[5] = dose: 100.0 mg/kg/injection, schedule: Q01DX001 (ip), vehicle: saline
[6] = dose: 200.0 mg/kg/injection, schedule: Q01DX001 (ip), vehicle: saline
[7] = dose: 100.0 mg/kg/injection, schedule: Q04DX003 (ip), vehicle: saline with Tween-80
[8] = dose: 200.0 mg/kg/injection, schedule: Q04DX003 (ip), vehicle: saline with Tween-80
[9] = dose: 400.0 mg/kg/injection, schedule: Q04DX003 (ip), vehicle: saline with Tween-80
[10] = dose: 100.0 mg/kg/injection, schedule: Q01DX001 (ip), vehicle: saline with Tween-80
[11] = dose: 200.0 mg/kg/injection, schedule: Q01DX001 (ip), vehicle: saline with Tween-80
[12] = dose: 400.0 mg/kg/injection, schedule: Q01DX001 (ip), vehicle: saline with Tween-80
[13] = dose: 100.0 mg/kg/injection, schedule: Q01DX001 (ip), vehicle: Klucel (hydroxypropylcellulose) (HPC)
[14] = dose: 200.0 mg/kg/injection, schedule: Q01DX001 (ip), vehicle: Klucel (hydroxypropylcellulose) (HPC)
[15] = dose: 100.0 mg/kg/injection, schedule: Q01DX009 (ip), vehicle: Klucel (hydroxypropylcellulose) (HPC)
[16] = dose: 100.0 mg/kg/injection, schedule: Q04DX003 (ip), vehicle: Klucel (hydroxypropylcellulose) (HPC)
[17] = dose: 200.0 mg/kg/injection, schedule: Q01DX009 (ip), vehicle: Klucel (hydroxypropylcellulose) (HPC)
[18] = dose: 200.0 mg/kg/injection, schedule: Q04DX003 (ip), vehicle: Klucel (hydroxypropylcellulose) (HPC)
[19] = dose: 400.0 mg/kg/injection, schedule: Q01DX009 (ip), vehicle: Klucel (hydroxypropylcellulose) (HPC)
[20] = dose: 400.0 mg/kg/injection, schedule: Q04DX003 (ip), vehicle: Klucel (hydroxypropylcellulose) (HPC)
[21] = dose: 100.0 mg/kg/injection, schedule: Q01DX001 (ip), vehicle: carboxymethylcellulose (CMC)
[22] = dose: 200.0 mg/kg/injection, schedule: Q01DX001 (ip), vehicle: carboxymethylcellulose (CMC)
[23] = dose: 400.0 mg/kg/injection, schedule: Q01DX001 (ip), vehicle: carboxymethylcellulose (CMC)
[24] = dose: 50.0 mg/kg/injection, schedule: Q01DX009 (ip), vehicle: saline
[25] = dose: 100.0 mg/kg/injection, schedule: Q01DX009 (ip), vehicle: saline

Nc1nc(SCc2ccccc2)c2ncn(C3CC(O)C(CO)O3)c2n1 (stereo not given)
T/C (dose: 7.0 mg/kg/injection, schedule: Q01DX015 (ip), vehicle: saline): 118 % of control
T/C (dose: 12.0 mg/kg/injection, schedule: Q01DX015 (ip), vehicle: saline): 168 % of control
T/C (dose: 20.0 mg/kg/injection, schedule: Q01DX015 (ip), vehicle: saline): 172 % of control
T/C (dose: 34.0 mg/kg/injection, schedule: Q01DX015 (ip), vehicle: saline): 153 % of control
T/C (dose: 100.0 mg/kg/injection, schedule: Q01DX005 (ip), vehicle: saline): 97 % of control
T/C (dose: 200.0 mg/kg/injection, schedule: Q01DX005 (ip), vehicle: saline): 113 % of control
T/C [1]: 157 % of control

O=C(O)/C(Cl)=C(/Cl)C(Cl)=C(Cl)Cl
T/C (dose: 50.0 mg/kg/injection, schedule: Q01DX009 (ip), vehicle: saline with Tween-80): 97 % of control

COc1cccc(C=O)c1[N+](=O)[O-]
T/C [2]: 104 % of control
T/C [3]: 108 % of control
T/C [4]: 97 % of control

OCC1OC(c2ccccc2)OC1C1OC(c2ccccc2)OC1CO (stereo not given)
T/C [5]: 98 % of control
T/C [6]: 96 % of control
T/C [1]: 98 % of control

Oc1ccc(CNc2nn[nH]n2)cc1
T/C [7]: 94 % of control
T/C [8]: 96 % of control
T/C [9]: 96 % of control

COC(=O)c1ccccc1N=NNc1ccc(C(F)(F)F)c([N+](=O)[O-])c1
T/C [7]: 98 % of control
T/C [8]: 103 % of control
T/C [9]: 88 % of control

CCOC(=O)C(C)(C)Oc1ccc(O)cc1
T/C [10]: 105 % of control
T/C [11]: 105 % of control
T/C [12]: 97 % of control

COc1ccc2c(c1)sc(/C=C/c1ccc(O)c3ncccc13)[n+]2C
T/C (dose: 75.0 mg/kg/injection, schedule: Q01DX001 (ip), vehicle: saline): 111 % of control
T/C (dose: 150.0 mg/kg/injection, schedule: Q01DX001 (ip), vehicle: saline): 110 % of control
T/C (dose: 300.0 mg/kg/injection, schedule: Q01DX001 (ip), vehicle: saline): 117 % of control

Clc1ccc2nsnc2c1
T/C [13]: 105 % of control
T/C [14]: 114 % of control

O=P1(Cc2ccccc2)CC(Br)C(Br)C1 (stereo not given)
T/C (dose: 100.0 mg/kg/injection, schedule: Q04DX003 (ip), vehicle: other): 101 % of control
T/C (dose: 200.0 mg/kg/injection, schedule: Q04DX003 (ip), vehicle: other): 101 % of control
T/C (dose: 400.0 mg/kg/injection, schedule: Q04DX003 (ip), vehicle: other): 101 % of control

c1ccc2c(c1)NC1CCN2C1 (stereo not given)
T/C [7]: 109 % of control
T/C [8]: 103 % of control
T/C [9]: 97 % of control

Cc1cc(Cl)ccc1NC(=O)c1ccc(Cl)cc1Cl
T/C [15]: 96 % of control
T/C [16]: 95 % of control
T/C [17]: 91 % of control
T/C [18]: 92 % of control
T/C [19]: 94 % of control
T/C [20]: 88 % of control

O=C(Nc1ccc(S(=O)(=O)O)c2ccccc12)c1ccc(C(=O)Nc2ccc(S(=O)(=O)O)c3ccccc23)cc1
T/C (dose: 62.5 mg/kg/injection, schedule: Q01DX Z (ip), vehicle: carboxymethylcellulose (CMC)): 92 % of control
T/C (dose: 125.0 mg/kg/injection, schedule: Q01DX Z (ip), vehicle: carboxymethylcellulose (CMC)): 89 % of control
T/C (dose: 250.0 mg/kg/injection, schedule: Q01DX Z (ip), vehicle: carboxymethylcellulose (CMC)): 90 % of control
T/C (dose: 500.0 mg/kg/injection, schedule: Q01DX Z (ip), vehicle: carboxymethylcellulose (CMC)): 89 % of control

CC12CCC3(CC1CCC1OC12)OCCO3 (stereo not given)
T/C [21]: 103 % of control
T/C [22]: 100 % of control
T/C [23]: 97 % of control

O=C1c2c(ccc3ccccc23)CCC1CN1CCCCC1 (stereo not given)
T/C [5]: 102 % of control
T/C [6]: 108 % of control
T/C [1]: 112 % of control

CC(C)(C)C(O)C1CCC(C(O)C(C)(C)C)S1(=O)=O (stereo not given)
T/C (dose: 50.0 mg/kg/injection, schedule: Q04DX003 (ip), vehicle: Klucel (hydroxypropylcellulose) (HPC)): 100 % of control
T/C [16]: 104 % of control
T/C [18]: 98 % of control
T/C [20]: 100 % of control

O=C(Cc1ccccc1)Nc1cccc(O)c1
T/C [10]: 97 % of control
T/C [11]: 96 % of control
T/C [12]: 95 % of control

Cc1ccc2nn(-c3ccc(O)cc3)[n+]([O-])c2c1
T/C [21]: 102 % of control
T/C [22]: 107 % of control
T/C [23]: 93 % of control

O=C(O)/C=C/C(=O)N1Cc2cc3ccccc3nc2C1
T/C (dose: 10.0 mg/kg/injection, schedule: Q04DX003 (ip), vehicle: saline): 99 % of control
T/C (dose: 20.0 mg/kg/injection, schedule: Q04DX003 (ip), vehicle: saline): 99 % of control
T/C (dose: 40.0 mg/kg/injection, schedule: Q04DX003 (ip), vehicle: saline): 105 % of control
T/C (dose: 80.0 mg/kg/injection, schedule: Q04DX003 (ip), vehicle: saline): 100 % of control
T/C (dose: 160.0 mg/kg/injection, schedule: Q04DX003 (ip), vehicle: saline): 96 % of control

O=C(Cl)CNS(=O)(=O)c1ccccc1
T/C (dose: 100.0 mg/kg/injection, schedule: Q01DX001 (ip), vehicle: other): 106 % of control
T/C (dose: 200.0 mg/kg/injection, schedule: Q01DX001 (ip), vehicle: other): 108 % of control
T/C (dose: 400.0 mg/kg/injection, schedule: Q01DX001 (ip), vehicle: other): 111 % of control

N#Cc1cc(-c2ccccc2)c[nH]c1=O
T/C (dose: 20.0 mg/kg/injection, schedule: Q01DX001 (ip), vehicle: Klucel (hydroxypropylcellulose) (HPC)): 98 % of control
T/C (dose: 40.0 mg/kg/injection, schedule: Q01DX001 (ip), vehicle: Klucel (hydroxypropylcellulose) (HPC)): 101 % of control
T/C (dose: 80.0 mg/kg/injection, schedule: Q01DX001 (ip), vehicle: Klucel (hydroxypropylcellulose) (HPC)): 103 % of control
T/C [13]: 102 % of control

N=Nc1c2ccccc2c2nc3c(N)[nH]nc(N)c3nc12
T/C [2]: 107 % of control
T/C [3]: 103 % of control
T/C [4]: 100 % of control

CC(C(=O)c1ccc(Cl)cc1)C(O)(C(F)(F)F)C(F)(F)F (stereo not given)
T/C (dose: 50.0 mg/kg/injection, schedule: Q01DX009 (ip), vehicle: Klucel (hydroxypropylcellulose) (HPC)): 104 % of control
T/C [15]: 104 % of control
T/C [16]: 103 % of control
T/C [17]: 108 % of control
T/C [18]: 101 % of control
T/C [20]: 103 % of control

Cc1nc2cc(Cl)cc([N+](=O)[O-])c2nc1C
T/C [15]: 91 % of control
T/C [17]: 93 % of control
T/C [19]: 91 % of control

CCOC(=O)/C=C(\CC(=O)OCC)Nc1ccc(OC)cc1
T/C [24]: 89 % of control
T/C [25]: 91 % of control
T/C (dose: 100.0 mg/kg/injection, schedule: Q04DX003 (ip), vehicle: acetone): 91 % of control
T/C (dose: 200.0 mg/kg/injection, schedule: Q04DX003 (ip), vehicle: acetone): 100 % of control
T/C (dose: 400.0 mg/kg/injection, schedule: Q04DX003 (ip), vehicle: acetone): 97 % of control

O=C(Nc1ccccc1)NC1CCCCC1
T/C [13]: 100 % of control
T/C [14]: 95 % of control
T/C (dose: 400.0 mg/kg/injection, schedule: Q01DX001 (ip), vehicle: Klucel (hydroxypropylcellulose) (HPC)): 101 % of control

CN1CCC2=C(C1)C(c1ccccc1)c1ccccc12 (stereo not given)
T/C (dose: 25.0 mg/kg/injection, schedule: Q01DX009 (ip), vehicle: saline): 90 % of control
T/C [24]: 95 % of control
T/C (dose: 50.0 mg/kg/injection, schedule: Q04DX003 (ip), vehicle: saline): 106 % of control
T/C [25]: 102 % of control
T/C (dose: 100.0 mg/kg/injection, schedule: Q04DX003 (ip), vehicle: saline): 106 % of control

COc1ccc(OC)c(NC(=O)Nc2ccc(C(=O)O)c(O)c2)c1
T/C [15]: 91 % of control
T/C [17]: 103 % of control
T/C [19]: 97 % of control

— PubChem BioAssay AID248 (DTP/NCI, 2004)
